From patent publication US9187773B2, “Method for improving acid tolerance of Propionibacterium acidipropionici” (Jiangnan University, priority 2012, dated 2015) come the findings set out here.

What all share (assay type): cell-based, Propionibacterium acidipropionici
Assay [1] deals with P. acidipropionici. Nature of the assay: Acid tolerance of P. acidipropionici with amino acid addition (growth in seed medium containing PA). Conditions: for Acid tolerance: seed medium with 2.5-5 g/L PA, 30° C., 40 h; for increase of the acid concentration that P. acidipropionici can tolerate: with addition of the amino acid, versus 2.5 g/L PA without amino acid. The method, then:
The present invention provides a method for improving acid tolerance of P. acidipropionici by adding arginine and/or aspartic acid in the culture.
P. acidipropionici was first inoculated with sterile seed medium in anaerobic jars. The anaerobic jars were incubated at 30° C. for 60 h. To determine the effects of adding amino acids on acid tolerance of P. acidipropionici, the culture broth was transferred into anaerobic jars containing fresh seed medium with 2.5-5 g/L PA, 5-30 mM arginine and/or 5-30 mM aspartic acid added. The strains were then incubated at 30° C. for 40 h.
The P. acidipropionici was bought from China General Microbiological Culture Collection, and the strain code is CGMCC 1.2230.
The seed medium: 10 g/L yeast extract, 5 g/L tryptic soy broth, 1.5 g/L KH2PO4, 2.5 g/L K2HPO4, pH 7.0.
To determine the effects of adding arginine on acid tolerance of P. acidipropionici, the strains were inoculated with an inoculum size of 1% (v/v) into anaerobic jars containing 100 mL sterile seed medium. The anaerobic jars were incubated at 30° C. for 60 hours. And then, the culture broth was transferred into anaerobic jars containing fresh seed medium with 2.5-5 g/L PA and 0-30 mM arginine by an inoculum size of 1% (v/v) and incubated at 30° C. for 40 hours.
To determine the effects of adding aspartic acid on acid tolerance of P. acidipropionici, the strains were inoculated with an inoculum size of 1% (v/v) into anaerobic jars containing (volume: 100 mL) 100 mL sterile seed medium. The anaerobic jars were incubated at 30° C. for 60 hours. And then, the culture broth was transferred into anaerobic jars containing fresh seed medium with 2.5-5 g/L PA and 0-30 mM aspartic acid by an inoculum size of 1% (v/v) and incubated at 30° C. for 40 hours.

For assay [2], the system named is P. acidipropionici. Briefly: PA production of P. acidipropionici with amino acid addition (fermentation, HPLC analysis).
Assay [3] has as its system P. acidipropionici. The assay is described as above. To be noted: 30° C., 150 h. The method, then:
To determine the effects of adding amino acids on PA production of P. acidipropionici, P. acidipropionici was inoculated with sterile seed medium in anaerobic jars. The anaerobic jars were incubated at 30° C. for 60 h. The culture broth was then transferred into anaerobic jars containing fresh culture medium. The PA fermentations with culture medium with or without addition of arginine and aspartic acid. The PA fermentations with culture medium without addition of arginine and aspartic acid were used as control.
The culture medium: 10 g/L yeast extract, 5 g/L tryptone, 1.5 g/L KH2PO4, 2.5 g/L K2HPO4, 25 g/L glycerol, 10 mg/L CoCl2, 30 g/L CaCO3, 5-30 mM arginine and/or 5-30 mM aspartic acid, pH 7.0.
To determine the effects of adding arginine on PA production of P. acidipropionici, the strains were inoculated with an inoculum size of 1% (v/v) into anaerobic jars containing 100 mL sterile seed medium. And then the seed culture was inoculated with an inoculum size of 10% (v/v) into anaerobic jars (volume: 100 mL) containing 50 mL culture medium into which certain amount of arginine was added. The anaerobic jars were incubated at 30° C. for 150 h.
Fermentation broth was centrifuged at 8000 rpm for 5 min, and the supernatant liquid was collected for analysis of PA. The supernatant liquid was diluted by 10 times with 3.68 mol/L sulphuric acid and then filtered with 0.22 μm pore size filter. The samples were analyzed by HPLC. As shown in Table 1 and FIG. 2, addition of amino acids increased PA production.
To determine the effects of adding aspartic acid on PA production of P. acidipropionici, the strains were inoculated with an inoculum size of 1% (v/v) into anaerobic jars containing 100 mL sterile seed medium. And then the seed culture was inoculated with an inoculum size of 10% (v/v) into anaerobic jars (volume: 100 mL) containing 50 mL culture medium into which certain amount of aspartic acid was added. The anaerobic jars were incubated at 30° C. for 150 hours.
Fermentation broth was centrifuged at 8000 rpm for 5 min, and the supernatant liquid was collected for analysis of PA. The supernatant liquid was diluted by 10 times with 3.68 mol/L sulphuric acid and then filtered with 0.22 μm pore size filter. The samples were analyzed by HPLC. As shown in Table 2 and FIG. 2, addition of amino acids increased PA production.

The mark [4] stands for this setting: amino acid concentration 10 mM in culture medium.
[5] abbreviates: amino acid concentration 20 mM in culture medium.
The mark [6] stands for this setting: amino acid concentration 30 mM in culture medium.

On to `N=C(N)NCCC[C@H](N)C(=O)O` [Arginine, arginine], for which the Acid tolerance with P. acidipropionici [1] (amino acid concentration 10 mM) is on record as 3 g/L; with P. acidipropionici [1] (amino acid concentration 20 mM), 4 g/L; in the assay with P. acidipropionici [1] (amino acid concentration 30 mM), 4 g/L. In addition, in the assay with P. acidipropionici [1], the “increase of the acid concentration that P. acidipropionici can tolerate” value came to 60%. For the same molecule, the PA production was found to be 12.60 g/L in the assay on P. acidipropionici [2] (30 mM added at the logarithmic phase of fermentation); 10.65 g/L in the assay on P. acidipropionici [2] (30 mM added at the stable phase of fermentation); 10.66 g/L in the assay with P. acidipropionici [3] (setting [4]); 10.60 g/L in the assay with P. acidipropionici [3] (setting [5]); 13.99 g/L in the assay with P. acidipropionici [3] (setting [6]).
Turning to `N[C@@H](CC(=O)O)C(=O)O` [Aspartic acid, aspartic acid], the figures for the Acid tolerance with P. acidipropionici [1] (amino acid concentration 10 mM), with P. acidipropionici [1] (amino acid concentration 20 mM) and with P. acidipropionici [1] (amino acid concentration 30 mM) were 2.5 g/L, 3 g/L and 3 g/L, respectively. Moreover, the “increase of the acid concentration that P. acidipropionici can tolerate” value in the assay on P. acidipropionici [1] turned out to be 20%. The PA production with P. acidipropionici [2] (20 mM added at the logarithmic phase of fermentation) is 12.75 g/L; with P. acidipropionici [2] (20 mM added at the stable phase of fermentation), 10.66 g/L; in the assay with P. acidipropionici [3] (setting [4]), 12.54 g/L; in the assay on P. acidipropionici [3] (setting [5]), 12.97 g/L; with P. acidipropionici [3] (setting [6]), 12.87 g/L.
